Test results reported in patent publication EP4722209A1 (Beijing Shenogen Pharma Group, priority 2023, dated 2024).

The compounds below were run against T1, ERα (Homo sapiens, UniProt P03372) (assay: ER degradation activity in MCF-7 cells (Western blot, grayscale intensity)). Details: 6 hours treatment, 1 nM to 100 nM, concentration required to degrade 50% of the target protein.
T1 construct: host or cells: MCF-7
T1 sequence (P03372 1-595): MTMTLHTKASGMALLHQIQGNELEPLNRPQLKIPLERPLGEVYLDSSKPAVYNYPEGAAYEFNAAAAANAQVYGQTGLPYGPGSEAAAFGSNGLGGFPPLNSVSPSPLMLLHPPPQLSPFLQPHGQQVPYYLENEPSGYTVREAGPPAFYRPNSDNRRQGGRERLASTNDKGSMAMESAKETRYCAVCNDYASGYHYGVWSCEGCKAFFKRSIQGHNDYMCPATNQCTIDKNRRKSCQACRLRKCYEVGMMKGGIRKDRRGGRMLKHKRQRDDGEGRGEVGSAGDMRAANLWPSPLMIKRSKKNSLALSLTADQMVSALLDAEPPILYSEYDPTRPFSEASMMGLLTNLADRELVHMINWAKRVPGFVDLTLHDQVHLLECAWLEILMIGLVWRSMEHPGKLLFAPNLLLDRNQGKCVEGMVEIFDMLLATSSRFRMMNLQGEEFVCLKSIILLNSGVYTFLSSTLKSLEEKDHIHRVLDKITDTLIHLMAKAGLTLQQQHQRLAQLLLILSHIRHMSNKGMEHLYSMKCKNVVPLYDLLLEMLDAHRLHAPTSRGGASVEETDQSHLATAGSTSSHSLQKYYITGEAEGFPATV
Type: cell-based
Description: ERα-positive human breast cancer cells MCF-7 (ATCC, HTB-22) were cultured with EMEM medium (ATCC, catalog number 30-2003) containing 10% fetal bovine serum (Thermo Fisher, catalog number 10099141) and 10 µg/mL bovine insulin in 25 cm^2 or 75 cm^2 plastic tissue culture flasks in a 37 °C incubator with 5% CO2. The cells were passaged 2 to 3 times per week. MCF-7 cells were seeded in 6-well plate at 1×10^6 cells/well with 1.8 mL culture medium per well, and cultured in a 37 °C incubator with 95% air and 5% CO2. After 24 hours, the test compounds were added: the compounds were serially diluted 10-fold in DMSO starting from 10 mM (dissolved in DMSO) to prepare gradient stock solutions. A complete culture medium containing 1% DMSO was prepared for further dilution, temporarily named as the "dilution buffer." Working solutions were prepared by diluting each stock solution with 99 times the volume of dilution buffer, that is, by adding 1 µL of the 10 mM stock solution to 99 µL of the dilution buffer and mixing thoroughly.
Finally, […] of the working solution was added to the cell-seeded culture plate. The final concentration of DMSO in the cell culture medium was 0.2%, and the final concentration of the test compounds ranged from 1 nM to 100 nM. The cells were then incubated at 37 °C for 6 hours.
The culture medium was removed, and the cells were washed twice with ice cold PBS. 1 mL of PBS was added to each well, and the cells were collected into EP tubes using a cell scraper, and centrifuged at 4 °C, 4000 rpm for 5 minutes. PBS was aspirated. Total protein was extracted using the Minute™ Mammalian Tissue/Cell Total Protein Extraction Reagent. The protein concentration was measured using the BCA protein assay kit. 30 µg of protein was taken and mixed with 5× SDS-PAGE loading buffer, boiled for 10 minutes, and cooled. The samples were loaded into wells of a precast gel, with constant voltage at 80 V for 30 minutes, and then the voltage was changed to 120 V after the samples entered the resolving gel. The "sandwich" (sponge - filter paper - gel - membrane - filter paper - sponge) was assembled for Bio-Rad's Transblot. Transfer was performed for 1 hour at 0.3 amp at 4 °C. The sample was blocked with 5% fat-free milk for 1 hour, and incubated with Estrogen Receptor alpha Antibody (Thermo Fisher, catalog number MA5-14104) overnight at 4 °C. The membrane was washed with TBST to remove non-specifically bound antibodies, and then incubated with goat anti-mouse IgG-HRP secondary antibody for 1 hour at room temperature, and was visualized using ECL. The protein degradation level was calculated by measuring the grayscale intensity.
The DC50 values (i.e., the concentration of the test compounds required to degrade 50% of the target protein) were calculated and shown in Table 1. A corresponds to a DC50 value below 10 nM, B corresponds to a DC50 value greater than 10 nM and less than 100 nM, and C corresponds to DC50 values greater than 100 nM. Table 1. The DC50 values of exemplary compounds in MCF-7 cells
For `CC1(C)CC(=C(c2ccc(N3CCN(CC4CN(c5ccc6c(c5)C(=O)N(C5CCC(=O)NC5=O)C6=O)C4)CC3)cc2)c2ccc3[nH]nc(F)c3c2)CC(C)(C)O1` (centres unmarked) [Compound 1], the DC50 was > 100 nM.
For `CC1(C)CC(=C(c2ccc3[nH]nc(F)c3c2)c2c(F)cc(N3CCN(C4CN(c5ccc6c(c5)C(=O)N(C5CCC(=O)NC5=O)C6=O)C4)CC3)cc2F)CC(C)(C)O1` (centres unmarked) [Compound 3], the DC50 was > 100 nM.
With `CC1(C)CC(=C(c2ccc(N3CCN(CC4CCN(c5ccc6c(c5)C(=O)N(C5CCC(=O)NC5=O)C6=O)CC4)CC3)nc2)c2ccc3[nH]nc(F)c3c2)CC(C)(C)O1` (centres unmarked) [Compound 4] the DC50 was > 100 nM.
`CC1(C)CC(=C(c2ccc(OC3CN(CC4CCN(c5ccc6c(c5)C(=O)N(C5CCC(=O)NC5=O)C6=O)CC4)C3)nc2)c2ccc3[nH]nc(F)c3c2)CC(C)(C)O1` (centres unmarked) [Compound 7] showed a DC50 of 10 to 100 nM.
For `CC1(C)CC(=C(c2ccc(OC3CN(CC4CCN(c5ccc6c(c5)C(=O)N(C5CCC(=O)NC5=O)C6=O)CC4)C3)cc2)c2ccc3[nH]nc(F)c3c2)CC(C)(C)O1` (centres unmarked) [Compound 8], the DC50 was > 100 nM.
With `CC1(C)CC(=C(c2ccc3[nH]nc(F)c3c2)c2c(F)cc(N3CCN(CC4CN(c5ccc6c(c5)C(=O)N(C5CCC(=O)NC5=O)C6=O)C4)CC3)cc2F)CC(C)(C)O1` (centres unmarked) [Compound 9] the DC50 was > 100 nM.
For `CC1(C)CC(=C(c2ccc3[nH]nc(F)c3c2)c2c(F)cc(N3CCN(C4CCN(c5ccc6c(c5)C(=O)N(C5CCC(=O)NC5=O)C6=O)CC4)CC3)cc2F)CC(C)(C)O1` (centres unmarked) [Compound 10], the DC50 was > 100 nM.
For `CC1(C)CC(=C(c2ccc3[nH]nc(F)c3c2)c2c(F)cc(N3CCC(N4CCN(c5ccc6c(c5)C(=O)N(C5CCC(=O)NC5=O)C6=O)CC4)CC3)cc2F)CC(C)(C)O1` (centres unmarked) [Compound 11], the DC50 was < 10 nM.
`CC1(C)CC(=C(c2ccc3[nH]nc(F)c3c2)c2c(F)cc(N3CCC(CN4CCN(c5ccc6c(c5)C(=O)N(C5CCC(=O)NC5=O)C6=O)CC4)CC3)cc2F)CC(C)(C)O1` (centres unmarked) [Compound 12] was tested, and the DC50 was 10 to 100 nM.
`CC1(C)CC(=C(c2ccc(N3CC(N4CCN(c5ccc6c(c5)C(=O)N(C5CCC(=O)NC5=O)C6=O)CC4)C3)cc2)c2ccc3[nH]nc(F)c3c2)CC(C)(C)O1` (centres unmarked) [Compound 13] was tested, and the DC50 was > 100 nM.
For `CC1(C)CC(=C(c2ccc3[nH]nc(F)c3c2)c2c(F)cc(OC3CN(C4CN(c5ccc6c(c5)C(=O)N(C5CCC(=O)NC5=O)C6=O)C4)C3)cc2F)CC(C)(C)O1` (centres unmarked) [Compound 14], the DC50 was > 100 nM.
`CC1(C)CC(=C(c2ccc3[nH]nc(F)c3c2)c2c(F)cc(N3CC(CN4CCN(c5ccc6c(c5)C(=O)N(C5CCC(=O)NC5=O)C6=O)CC4)C3)cc2F)CC(C)(C)O1` (centres unmarked) [Compound 15] gave a DC50 of 10 to 100 nM.
With `CC1(C)CC(=C(c2ccc(OCCN3CCN(c4ccc5c(c4)C(=O)N(C4CCC(=O)NC4=O)C5=O)CC3)cc2)c2ccc3[nH]nc(F)c3c2)CC(C)(C)O1` (centres unmarked) [Compound 16] the DC50 was > 100 nM.
With `CC1(C)CC(=C(c2ccc(N3CC(CN4CCN(c5ccc6c(c5)C(=O)N(C5CCC(=O)NC5=O)C6=O)CC4)C3)cc2)c2ccc3[nH]nc(F)c3c2)CC(C)(C)O1` (centres unmarked) [Compound 17] the DC50 was > 100 nM.
With `CC1(C)CC(=C(c2ccc(OC3CN(C4CCN(c5ccc6c(c5)C(=O)N(C5CCC(=O)NC5=O)C6=O)CC4)C3)nc2)c2ccc3[nH]nc(F)c3c2)CC(C)(C)O1` (centres unmarked) [Compound 18] the DC50 was > 100 nM.
`CC1(C)CC(=C(c2ccc(OC3CN(C4CN(c5ccc6c(c5)C(=O)N(C5CCC(=O)NC5=O)C6=O)C4)C3)nc2)c2ccc3[nH]nc(F)c3c2)CC(C)(C)O1` (centres unmarked) [Compound 19] was tested, and the DC50 was > 100 nM.
In the case of `CC1(C)CC(=C(c2ccc(OC3CN(C4CCN(c5ccc6c(c5)C(=O)N(C5CCC(=O)NC5=O)C6=O)CC4)C3)cc2)c2ccc3[nH]nc(F)c3c2)CC(C)(C)O1` (centres unmarked) [Compound 20], the DC50 is reported as > 100 nM.
In the case of `CC1(C)CC(=C(c2ccc(OC3CN(C4CN(c5ccc6c(c5)C(=O)N(C5CCC(=O)NC5=O)C6=O)C4)C3)cc2)c2ccc3[nH]nc(F)c3c2)CC(C)(C)O1` (centres unmarked) [Compound 21], the DC50 is reported as > 100 nM.
`CC1(C)CC(=C(c2ccc3[nH]nc(F)c3c2)c2c(F)cc(OCCN3CCN(c4ccc5c(c4)C(=O)N(C4CCC(=O)NC4=O)C5=O)CC3)cc2F)CC(C)(C)O1` (centres unmarked) [Compound 23] was tested, and the DC50 was > 100 nM.
`CC1(C)CC(=C(c2ccc3[nH]nc(F)c3c2)c2c(F)cc(OC3CN(CC4CCN(c5ccc6c(c5)C(=O)N(C5CCC(=O)NC5=O)C6=O)CC4)C3)cc2F)CC(C)(C)O1` (centres unmarked) [Compound 24] was tested, and the DC50 was 10 to 100 nM.
For `CC1(C)CC(=C(c2ccc3[nH]nc(F)c3c2)c2c(F)cc(OC3CN(C4CCN(c5ccc6c(c5)C(=O)N(C5CCC(=O)NC5=O)C6=O)CC4)C3)cc2F)CC(C)(C)O1` (centres unmarked) [Compound 25], the DC50 was > 100 nM.
With `CC1(C)CC(=C(c2ccc3[nH]nc(F)c3c2)c2c(F)cc(OC3CN(CC4CN(c5ccc6c(c5)C(=O)N(C5CCC(=O)NC5=O)C6=O)C4)C3)cc2F)CC(C)(C)O1` (centres unmarked) [Compound 26] the DC50 was < 10 nM.
`CC1(C)CC(=C(c2ccc(N3CC(CN4CCN(c5ccc6c(c5)C(=O)N(C5CCC(=O)NC5=O)C6=O)CC4)C3)nc2)c2ccc3[nH]nc(F)c3c2)CC(C)(C)O1` (centres unmarked) [Compound 27] was tested, and the DC50 was 10 to 100 nM.
In the case of `CC1(C)CC(=C(c2ccc(OCCN3CCN(c4ccc5c(c4)C(=O)N(C4CCC(=O)NC4=O)C5=O)CC3)nc2)c2ccc3[nH]nc(F)c3c2)CC(C)(C)O1` (centres unmarked) [Compound 28], the DC50 is reported as > 100 nM.
In the case of `CC1(C)CC(=C(c2ccc3[nH]nc(F)c3c2)c2c(F)cc(N3CC(N4CCN(c5ccc6c(c5)C(=O)N(C5CCC(=O)NC5=O)C6=O)CC4)C3)cc2F)CC(C)(C)O1` (centres unmarked) [Compound 29], the DC50 is reported as > 100 nM.
For `CC1(C)CC(=C(c2ccc(OC3CN(CC4CN(c5ccc6c(c5)C(=O)N(C5CCC(=O)NC5=O)C6=O)C4)C3)nc2)c2ccc3[nH]nc(F)c3c2)CC(C)(C)O1` (centres unmarked) [Compound 30], the DC50 was > 100 nM.
`CC1(C)CC(=C(c2ccc(OC3CN(CC4CN(c5ccc6c(c5)C(=O)N(C5CCC(=O)NC5=O)C6=O)C4)C3)cc2)c2ccc3[nH]nc(F)c3c2)CC(C)(C)O1` (centres unmarked) [Compound 32] was tested, and the DC50 was > 100 nM.
For `CC1(C)CC(=C(c2ccc(N3CCC(CN4CCN(c5ccc6c(c5)CN(C5CCC(=O)NC5=O)C6=O)CC4)CC3)nc2)c2ccc3[nH]ncc3c2)CC(C)(C)O1` (centres unmarked) [Compound 39], the DC50 was < 10 nM.
With `CC1(C)CC(=C(c2ccc(N3CC(CN4CCN(c5ccc6c(c5)CN(C5CCC(=O)NC5=O)C6=O)CC4)C3)nc2)c2ccc3[nH]nc(F)c3c2)CC(C)(C)O1` (centres unmarked) [Compound 40] the DC50 was > 100 nM.
For `CC1(C)CC(=C(c2ccc(N3CCC(CN4CCN(c5ccc6c(c5)CN(C5CCC(=O)NC5=O)C6=O)CC4)CC3)cc2)c2ccc3[nH]nc(F)c3c2)CC(C)(C)O1` (centres unmarked) [Compound 41], the DC50 was 10 to 100 nM.
`CC1(C)CC(=C(c2ccc(N3CCC4(CC3)CC(N3CC5(CN(c6ccc7c(c6)CN(C6CCC(=O)NC6=O)C7=O)C5)C3)C4)nc2)c2ccc3[nH]nc(F)c3c2)CC(C)(C)O1` (centres unmarked) [Compound 43] was tested, and the DC50 was > 100 nM.
`CN(CC1CCN(c2ccc(C(=C3CC(C)(C)OC(C)(C)C3)c3ccc4[nH]nc(F)c4c3)cn2)CC1)C1CCN(c2ccc3c(c2)CN(C2CCC(=O)NC2=O)C3=O)CC1` (centres unmarked) [Compound 45] gave a DC50 of 10 to 100 nM.
In the case of `CC1(C)CC(=C(c2ccc(N3CCC4(CC(N5CCN(c6ccc7c(c6)CN(C6CCC(=O)NC6=O)C7=O)CC5)C4)C3)nc2)c2ccc3[nH]nc(F)c3c2)CC(C)(C)O1` (centres unmarked) [Compound 49], the DC50 is reported as > 100 nM.
With `CC1(C)CC(=C(c2ccc(N3CC4(CC(N5CCN(c6ccc7c(c6)CN(C6CCC(=O)NC6=O)C7=O)CC5)C4)C3)nc2)c2ccc3[nH]nc(F)c3c2)CC(C)(C)O1` (centres unmarked) [Compound 50] the DC50 was > 100 nM.
In the case of `CC1(C)CC(=C(c2ccc(N3CC4C(CN5CCN(c6ccc7c(c6)CN(C6CCC(=O)NC6=O)C7=O)CC5)C4C3)nc2)c2ccc3[nH]nc(F)c3c2)CC(C)(C)O1` (centres unmarked) [Compound 51], the DC50 is reported as > 100 nM.
